In ChEMBL document CHEMBL3046329, “Sensitivity to silthiofam, tebuconazole and difenoconazole of Gaeumannomyces graminis var. tritici isolates from China” (Pest Manag Sci, 2012):
Converted amounts (≈) assume the structure as drawn.

Assays:
Format in all cases: functional, organism-based
Gaeumannomyces tritici [1] = assay: Antifungal activity against sithiofam-sensitive Gaeumannomyces graminis var. tritici isolate JS08 expressing C2 genetic cluster assessed as reduction in fungal colony diameter after 4 days; details: isolate JS08, 96 h
Gaeumannomyces tritici [2] = assay: Antifungal activity against sithiofam-resistant Gaeumannomyces graminis var. tritici isolate JS06 expressing C1 genetic cluster assessed as reduction in fungal colony diameter after 4 days; details: isolate JS06, 96 h
Gaeumannomyces tritici [3] = assay: Antifungal activity against sithiofam-resistant Gaeumannomyces graminis var. tritici isolate JS04 expressing C1 genetic cluster assessed as reduction in fungal colony diameter after 4 days; details: isolate JS04, 96 h
Gaeumannomyces tritici [4] = assay: Antifungal activity against sithiofam-resistant Gaeumannomyces graminis var. tritici isolate JS09 expressing C1 genetic cluster assessed as reduction in fungal colony diameter after 4 days; details: isolate JS09, 96 h
Gaeumannomyces tritici [5] = assay: Antifungal activity against sithiofam-sensitive Gaeumannomyces graminis var. tritici isolate HN21 expressing C2 genetic cluster assessed as reduction in fungal colony diameter after 4 days; details: isolate HN21, 96 h
Gaeumannomyces tritici [6] = assay: Antifungal activity against sithiofam-resistant Gaeumannomyces graminis var. tritici isolate HN20 expressing C1 genetic cluster assessed as reduction in fungal colony diameter after 4 days; details: isolate HN20, 96 h
Gaeumannomyces tritici [7] = assay: Antifungal activity against sithiofam-sensitive Gaeumannomyces graminis var. tritici isolate HN19 expressing C2 genetic cluster assessed as reduction in fungal colony diameter after 4 days; details: isolate HN19, 96 h
Gaeumannomyces tritici [8] = assay: Antifungal activity against sithiofam-sensitive Gaeumannomyces graminis var. tritici isolate HN18 expressing C2 genetic cluster assessed as reduction in fungal colony diameter after 4 days; details: isolate HN18, 96 h
Gaeumannomyces tritici [9] = assay: Antifungal activity against sithiofam-sensitive Gaeumannomyces graminis var. tritici isolate HN29 expressing C2 genetic cluster assessed as reduction in fungal colony diameter after 4 days; details: isolate HN29, 96 h
Gaeumannomyces tritici [10] = assay: Antifungal activity against sithiofam-sensitive Gaeumannomyces graminis var. tritici isolate HN26 expressing C2 genetic cluster assessed as reduction in fungal colony diameter after 4 days; details: isolate HN26, 96 h
Gaeumannomyces tritici [11] = assay: Antifungal activity against sithiofam-sensitive Gaeumannomyces graminis var. tritici isolate HN24 expressing C2 genetic cluster assessed as reduction in fungal colony diameter after 4 days; details: isolate HN24, 96 h
Gaeumannomyces tritici [12] = assay: Antifungal activity against sithiofam-sensitive Gaeumannomyces graminis var. tritici isolate HN23 expressing C2 genetic cluster assessed as reduction in fungal colony diameter after 4 days; details: isolate HN23, 96 h
Gaeumannomyces tritici [13] = assay: Antifungal activity against sithiofam-sensitive Gaeumannomyces graminis var. tritici isolate HN14 expressing C2 genetic cluster assessed as reduction in fungal colony diameter after 4 days; details: isolate HN14, 96 h
Gaeumannomyces tritici [14] = assay: Antifungal activity against sithiofam-resistant Gaeumannomyces graminis var. tritici isolate HN13 expressing C1 genetic cluster assessed as reduction in fungal colony diameter after 4 days; details: isolate HN13, 96 h
Gaeumannomyces tritici [15] = assay: Antifungal activity against sithiofam-resistant Gaeumannomyces graminis var. tritici isolate HN12 expressing C1 genetic cluster assessed as reduction in fungal colony diameter after 4 days; details: isolate HN12, HN12, 96 h
Gaeumannomyces tritici [16] = assay: Antifungal activity against sithiofam-resistant Gaeumannomyces graminis var. tritici isolate HN08 expressing C1 genetic cluster assessed as reduction in fungal colony diameter after 4 days; details: isolate HN08, 96 h
Gaeumannomyces tritici [17] = assay: Antifungal activity against sithiofam-resistant Gaeumannomyces graminis var. tritici isolate HN07 expressing C1 genetic cluster assessed as reduction in fungal colony diameter after 4 days; details: isolate HN07, 96 h
Gaeumannomyces tritici [18] = assay: Antifungal activity against sithiofam-resistant Gaeumannomyces graminis var. tritici isolate HN06 expressing C1 genetic cluster assessed as reduction in fungal colony diameter after 4 days; details: isolate HN06, 96 h
Gaeumannomyces tritici [19] = assay: Antifungal activity against sithiofam-resistant Gaeumannomyces graminis var. tritici isolate HN04 expressing C1 genetic cluster assessed as reduction in fungal colony diameter after 4 days; details: isolate HN04, 96 h
Gaeumannomyces tritici [20] = assay: Antifungal activity against sithiofam-resistant Gaeumannomyces graminis var. tritici isolate HN01 expressing C1 genetic cluster assessed as reduction in fungal colony diameter after 4 days; details: isolate HN01, 96 h
Gaeumannomyces tritici [21] = assay: Antifungal activity against sithiofam-sensitive Gaeumannomyces graminis var. tritici isolate AH09 expressing C2 genetic cluster assessed as reduction in fungal colony diameter after 4 days; details: isolate AH09, 96 h
Gaeumannomyces tritici [22] = assay: Antifungal activity against sithiofam-resistant Gaeumannomyces graminis var. tritici isolate HN16 expressing C1 genetic cluster assessed as reduction in fungal colony diameter after 4 days; details: isolate HN16, 96 h
Gaeumannomyces tritici [23] = assay: Antifungal activity against sithiofam-sensitive Gaeumannomyces graminis var. tritici isolate JS01 expressing C1 genetic cluster assessed as reduction in fungal colony diameter after 4 days; details: isolate JS01, 96 h
Gaeumannomyces tritici [24] = assay: Antifungal activity against sithiofam-sensitive Gaeumannomyces graminis var. tritici isolate AH16 expressing C2 genetic cluster assessed as reduction in fungal colony diameter after 4 days; details: isolate AH16, 96 h
Gaeumannomyces tritici [25] = assay: Antifungal activity against sithiofam-sensitive Gaeumannomyces graminis var. tritici isolate AH15 expressing C2 genetic cluster assessed as reduction in fungal colony diameter after 4 days; details: isolate AH15, 96 h
Gaeumannomyces tritici [26] = assay: Antifungal activity against sithiofam-sensitive Gaeumannomyces graminis var. tritici isolate AH07 expressing C2 genetic cluster assessed as reduction in fungal colony diameter after 4 days; details: isolate AH07, 96 h
Gaeumannomyces tritici [27] = assay: Antifungal activity against sithiofam-resistant Gaeumannomyces graminis var. tritici isolate AH06 expressing C1 genetic cluster assessed as reduction in fungal colony diameter after 4 days; details: isolate AH06, 96 h
Gaeumannomyces tritici [28] = assay: Antifungal activity against sithiofam-sensitive Gaeumannomyces graminis var. tritici isolate AH01 expressing C2 genetic cluster assessed as reduction in fungal colony diameter after 4 days; details: isolate AH01, 96 h
Gaeumannomyces tritici [29] = assay: Antifungal activity against sithiofam-sensitive Gaeumannomyces graminis var. tritici isolate SD03 expressing C2 genetic cluster assessed as reduction in fungal colony diameter after 4 days; details: isolate SD03, 96 h
Gaeumannomyces tritici [30] = assay: Antifungal activity against sithiofam-sensitive Gaeumannomyces graminis var. tritici isolate SD02 expressing C2 genetic cluster assessed as reduction in fungal colony diameter after 4 days; details: isolate SD02, 96 h
Gaeumannomyces tritici [31] = assay: Antifungal activity against sithiofam-resistant Gaeumannomyces graminis var. tritici isolate AH14 expressing C1 genetic cluster assessed as reduction in fungal colony diameter after 4 days; details: isolate AH14, 96 h
Gaeumannomyces tritici [32] = assay: Antifungal activity against sithiofam-resistant Gaeumannomyces graminis var. tritici isolate AH13 expressing C1 genetic cluster assessed as reduction in fungal colony diameter after 4 days; details: isolate AH13, 96 h
Gaeumannomyces tritici [33] = assay: Antifungal activity against sithiofam-sensitive Gaeumannomyces graminis var. tritici isolate AH12 expressing C2 genetic cluster assessed as reduction in fungal colony diameter after 4 days; details: isolate AH12, 96 h
Gaeumannomyces tritici [34] = assay: Antifungal activity against sithiofam-sensitive Gaeumannomyces graminis var. tritici isolate AH11 expressing C2 genetic cluster assessed as reduction in fungal colony diameter after 4 days; details: isolate AH11, 96 h
Gaeumannomyces tritici [35] = assay: Antifungal activity against sithiofam-resistant Gaeumannomyces graminis var. tritici isolate AH10 expressing C1 genetic cluster assessed as reduction in fungal colony diameter after 4 days; details: isolate AH10, 96 h
Gaeumannomyces tritici [36] = assay: Antifungal activity against sithiofam-sensitive Gaeumannomyces graminis var. tritici isolate SD01 expressing C2 genetic cluster assessed as reduction in fungal colony diameter after 4 days; details: isolate SD01, 96 h
Gaeumannomyces tritici [37] = assay: Antifungal activity against sithiofam-sensitive Gaeumannomyces graminis var. tritici isolate HN30 expressing C2 genetic cluster assessed as reduction in fungal colony diameter after 4 days; details: isolate HN30, 96 h

Compound: CC1COC(Cn2cncn2)(c2ccc(Oc3ccc(Cl)cc3)cc2Cl)O1 (configuration not stated) [DIFENOCONAZOLE]
- EC50 (Gaeumannomyces tritici [1]): 0.163 µg/mL (≈ 0.4 µM)
- EC50 (Gaeumannomyces tritici [2]): 0.223 µg/mL (≈ 0.548 µM)
- EC50 (Gaeumannomyces tritici [3]): 0.198 µg/mL (≈ 0.486 µM)
- EC50 (Gaeumannomyces tritici [4]): 0.13 µg/mL (≈ 0.32 µM)
- EC50 (Gaeumannomyces tritici [5]): 0.254 µg/mL (≈ 0.625 µM)
- EC50 (Gaeumannomyces tritici [6]): 0.569 µg/mL (≈ 1.4 µM)
- EC50 (Gaeumannomyces tritici [7]): 0.326 µg/mL (≈ 0.803 µM)
- EC50 (Gaeumannomyces tritici [8]): 0.313 µg/mL (≈ 0.769 µM)
- EC50 (Gaeumannomyces tritici [9]): 0.107 µg/mL (≈ 0.265 µM)
- EC50 (Gaeumannomyces tritici [10]): 0.366 µg/mL (≈ 0.902 µM)
- EC50 (Gaeumannomyces tritici [11]): 0.111 µg/mL (≈ 0.274 µM)
- EC50 (Gaeumannomyces tritici [12]): 0.331 µg/mL (≈ 0.816 µM)
- EC50 (Gaeumannomyces tritici [13]): 0.0988 µg/mL (≈ 0.243 µM)
- EC50 (Gaeumannomyces tritici [14]): 0.223 µg/mL (≈ 0.548 µM)
- EC50 (Gaeumannomyces tritici [15]): 0.588 µg/mL (≈ 1.45 µM)
- EC50 (Gaeumannomyces tritici [16]): 0.216 µg/mL (≈ 0.533 µM)
- EC50 (Gaeumannomyces tritici [17]): 0.481 µg/mL (≈ 1.18 µM)
- EC50 (Gaeumannomyces tritici [18]): 0.479 µg/mL (≈ 1.18 µM)
- EC50 (Gaeumannomyces tritici [19]): 0.255 µg/mL (≈ 0.626 µM)
- EC50 (Gaeumannomyces tritici [20]): 0.389 µg/mL (≈ 0.958 µM)
- EC50 (Gaeumannomyces tritici [21]): 0.142 µg/mL (≈ 0.349 µM)
- EC50 (Gaeumannomyces tritici [22]): 1.01 µg/mL (≈ 2.49 µM)
- EC50 (Gaeumannomyces tritici [23]): 0.142 µg/mL (≈ 0.349 µM)
- EC50 (Gaeumannomyces tritici [24]): 0.126 µg/mL (≈ 0.309 µM)
- EC50 (Gaeumannomyces tritici [25]): 0.169 µg/mL (≈ 0.415 µM)
- EC50 (Gaeumannomyces tritici [26]): 0.539 µg/mL (≈ 1.33 µM)
- EC50 (Gaeumannomyces tritici [27]): 0.24 µg/mL (≈ 0.59 µM)
- EC50 (Gaeumannomyces tritici [28]): 0.17 µg/mL (≈ 0.419 µM)
- EC50 (Gaeumannomyces tritici [29]): 0.53 µg/mL (≈ 1.31 µM)
- EC50 (Gaeumannomyces tritici [30]): 0.335 µg/mL (≈ 0.825 µM)
- EC50 (Gaeumannomyces tritici [31]): 0.301 µg/mL (≈ 0.741 µM)
- EC50 (Gaeumannomyces tritici [32]): 0.288 µg/mL (≈ 0.708 µM)
- EC50 (Gaeumannomyces tritici [33]): 0.154 µg/mL (≈ 0.38 µM)
- EC50 (Gaeumannomyces tritici [34]): 0.129 µg/mL (≈ 0.317 µM)
- EC50 (Gaeumannomyces tritici [35]): 0.128 µg/mL (≈ 0.314 µM)
- EC50 (Gaeumannomyces tritici [36]): 0.782 µg/mL (≈ 1.93 µM)
- EC50 (Gaeumannomyces tritici [37]): 0.102 µg/mL (≈ 0.251 µM)
